Structures can show the parent of a compound that is named as a salt. Where two headings read alike, the source gives them in different places.

The subject of test [1] is Phosphorylated Ribosomal Protein S6 (RPS6) in THP-1 cells. The test can be described thus: THP-1 RPS6 ELISA assay. It counts as cell-based, human. To be noted: 10 nM MCP-1, read-out: PI3Kγ_THP1_RPS6_ELISA IC50. On the technique in general: In an ELISA, binding on a coated surface is turned into a signal by an enzyme label.
The target in test [2] is PI3Kδ (p110δ/p85α) Recombinant Human Protein (Homo sapiens (Human), UniProt O00329). Put plainly: PI3Kδ scintillation proximity assay. It counts as biochemical. To be noted: 2 μM ATP, 20 μM PIP2.
Sequence of PI3Kδ (p110δ/p85α) Recombinant Human Protein (O00329 whole entry): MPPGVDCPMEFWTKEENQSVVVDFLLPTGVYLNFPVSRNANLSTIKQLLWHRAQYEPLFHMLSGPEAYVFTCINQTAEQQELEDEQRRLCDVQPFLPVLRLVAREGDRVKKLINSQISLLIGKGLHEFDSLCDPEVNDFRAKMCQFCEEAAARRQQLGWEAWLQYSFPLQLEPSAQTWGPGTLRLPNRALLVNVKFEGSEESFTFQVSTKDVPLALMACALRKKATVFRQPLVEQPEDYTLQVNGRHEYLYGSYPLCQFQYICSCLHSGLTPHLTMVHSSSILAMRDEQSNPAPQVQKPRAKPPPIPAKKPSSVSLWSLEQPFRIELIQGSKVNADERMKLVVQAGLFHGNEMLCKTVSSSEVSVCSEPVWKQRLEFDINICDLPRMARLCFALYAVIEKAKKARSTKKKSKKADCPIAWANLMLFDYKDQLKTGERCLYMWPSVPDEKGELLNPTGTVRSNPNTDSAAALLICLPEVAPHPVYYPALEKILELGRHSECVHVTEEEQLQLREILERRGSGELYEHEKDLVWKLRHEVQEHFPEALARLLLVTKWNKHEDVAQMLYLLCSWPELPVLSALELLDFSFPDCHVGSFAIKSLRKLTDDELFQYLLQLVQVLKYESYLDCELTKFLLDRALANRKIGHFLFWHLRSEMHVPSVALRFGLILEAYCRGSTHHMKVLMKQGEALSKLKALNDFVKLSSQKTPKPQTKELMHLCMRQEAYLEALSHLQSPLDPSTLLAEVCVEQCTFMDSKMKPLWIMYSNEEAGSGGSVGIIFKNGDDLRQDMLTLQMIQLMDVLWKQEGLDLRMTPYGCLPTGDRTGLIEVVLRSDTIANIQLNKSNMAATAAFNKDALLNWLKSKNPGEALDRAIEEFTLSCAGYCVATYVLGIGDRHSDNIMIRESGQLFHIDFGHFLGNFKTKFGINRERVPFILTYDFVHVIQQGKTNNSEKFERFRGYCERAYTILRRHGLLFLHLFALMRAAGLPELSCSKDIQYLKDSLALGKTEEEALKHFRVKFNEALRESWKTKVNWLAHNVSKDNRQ
Sequence of PI3Kδ (p110δ/p85α) Recombinant Human Protein (P27986 whole entry partner): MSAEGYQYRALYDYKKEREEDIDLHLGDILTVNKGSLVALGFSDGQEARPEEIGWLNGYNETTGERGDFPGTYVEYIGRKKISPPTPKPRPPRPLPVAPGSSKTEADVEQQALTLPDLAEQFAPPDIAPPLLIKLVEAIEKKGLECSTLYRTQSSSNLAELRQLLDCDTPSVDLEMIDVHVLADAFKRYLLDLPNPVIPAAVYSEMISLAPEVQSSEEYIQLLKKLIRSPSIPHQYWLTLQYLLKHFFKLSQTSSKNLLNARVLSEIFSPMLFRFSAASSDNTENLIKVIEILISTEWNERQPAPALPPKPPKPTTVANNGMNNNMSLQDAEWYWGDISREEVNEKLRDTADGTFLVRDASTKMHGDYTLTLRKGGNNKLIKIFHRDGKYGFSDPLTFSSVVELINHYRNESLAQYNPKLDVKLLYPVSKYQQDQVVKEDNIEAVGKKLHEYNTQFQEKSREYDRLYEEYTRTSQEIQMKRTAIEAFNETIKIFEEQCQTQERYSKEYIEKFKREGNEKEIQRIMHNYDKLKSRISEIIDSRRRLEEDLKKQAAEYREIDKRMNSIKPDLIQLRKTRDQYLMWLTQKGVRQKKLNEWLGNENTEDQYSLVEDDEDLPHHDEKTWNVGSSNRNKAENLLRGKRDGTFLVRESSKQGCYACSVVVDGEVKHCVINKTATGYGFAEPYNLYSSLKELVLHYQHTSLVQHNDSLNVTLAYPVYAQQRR
Test [3] concerns the target PI3Kγ (p110γ) Recombinant Human Protein (Homo sapiens (Human), UniProt P48736). Put plainly: PI3K-γ scintillation proximity assay. In kind it is biochemical. To be noted: 2 μM ATP, 20 μM PIP2. A general note: In a scintillation proximity assay essentially only radioactivity close to the scintillant gives light.
The mark [4] stands for this setting: Homo sapiens, THP-1, THP-1 cells.

Sequence of PI3Kγ (p110γ) Recombinant Human Protein (P48736 whole entry): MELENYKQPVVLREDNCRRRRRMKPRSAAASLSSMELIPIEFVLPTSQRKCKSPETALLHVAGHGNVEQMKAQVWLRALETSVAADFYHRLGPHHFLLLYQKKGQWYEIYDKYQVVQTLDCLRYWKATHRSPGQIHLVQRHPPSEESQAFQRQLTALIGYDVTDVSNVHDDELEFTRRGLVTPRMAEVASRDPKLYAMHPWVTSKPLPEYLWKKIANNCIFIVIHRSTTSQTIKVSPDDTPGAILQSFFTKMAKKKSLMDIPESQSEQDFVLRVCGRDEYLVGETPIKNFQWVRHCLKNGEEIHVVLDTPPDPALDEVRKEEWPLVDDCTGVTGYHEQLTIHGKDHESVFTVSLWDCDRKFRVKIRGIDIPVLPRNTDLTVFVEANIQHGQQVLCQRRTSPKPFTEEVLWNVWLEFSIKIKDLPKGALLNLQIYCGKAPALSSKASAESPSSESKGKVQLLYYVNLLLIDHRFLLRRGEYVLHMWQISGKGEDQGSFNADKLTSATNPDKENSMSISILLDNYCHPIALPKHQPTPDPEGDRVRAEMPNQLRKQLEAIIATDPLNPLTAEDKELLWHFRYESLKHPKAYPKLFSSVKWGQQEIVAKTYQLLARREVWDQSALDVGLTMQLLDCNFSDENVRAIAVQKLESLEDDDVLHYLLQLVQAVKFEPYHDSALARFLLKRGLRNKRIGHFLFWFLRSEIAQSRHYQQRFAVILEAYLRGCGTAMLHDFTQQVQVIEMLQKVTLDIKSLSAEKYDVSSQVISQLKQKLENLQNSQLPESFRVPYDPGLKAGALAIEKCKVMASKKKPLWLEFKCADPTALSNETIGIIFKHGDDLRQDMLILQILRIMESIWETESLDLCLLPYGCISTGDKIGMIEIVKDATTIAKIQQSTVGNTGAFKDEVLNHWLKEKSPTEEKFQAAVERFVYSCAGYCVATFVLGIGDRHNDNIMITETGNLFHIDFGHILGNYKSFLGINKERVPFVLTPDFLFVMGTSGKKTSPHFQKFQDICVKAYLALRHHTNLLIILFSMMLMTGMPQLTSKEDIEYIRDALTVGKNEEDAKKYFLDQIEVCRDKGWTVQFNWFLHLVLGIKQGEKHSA

Consider `CC(NC(=O)c1c(N)nn2cccnc12)c1cc(Cl)c2cncn2c1N1CCCC(C)(C#N)C1` (single isomer, unassigned) [Example 77B, 2-Amino-N-{1-[8-chloro-5-(3-cyano-3-methylpiperidin-1-yl)imidazo[1,5-a]pyridin-6-yl]ethyl}pyrazolo[1,5-a]pyrimidinc-3-carboxamide trifluroacetate], for which the IC50 in test [1] (THP-1 cells) is under 500 nM; in test [2] it was under 100 nM; in test [3], under 100 nM.

On to `CC(NC(=O)c1c(N)nn2cccnc12)c1cc(Cl)c2cncn2c1N1CCCC(O)(C(F)(F)F)C1` (single isomer, unassigned) [Example 78A, 2-Amino-N-(1-{8-chloro-5-[3-hydroxy-3-(trifluoromethyl)piperidin-1-yl]imidazo[1,5-a]pyridin-6-yl}ethyl)pyrazolo[1,5-a]pyrimidine-3-carboxamide trifluoroacetate], for which the IC50 is under 500 nM in test [1] (setting [4]), under 500 nM in test [2] and under 100 nM in test [3].

In the case of `CC(NC(=O)c1c(N)nn2cccnc12)c1cc(Cl)c2cncn2c1N1CCCC(O)(C(F)(F)F)C1` (single isomer, unassigned) [Example 78B, 2-Amino-N-(1-{8-chloro-5-[3-hydroxy-3-(trifluoromethyl)piperidin-1-yl]imidazo[1,5-a]pyridin-6-yl}ethyl)pyrazolo[1,5-a]pyrimidine-3-carboxamide trifluoroacetate], the IC50 in test [1] (THP-1 cells) is under 500 nM; in test [2], under 100 nM; in test [3], under 100 nM.

As for `CC(NC(=O)c1c(N)nn2cccnc12)c1cc(Cl)c2cn[nH]c2c1N1CCC(O)C1` (single isomer, unassigned) [Example 90B, 2-Amino-N-{1-[4-chloro-7-(3-hydroxypyrrolidin-1-yl)-2H-indazol-6-yl]ethyl}pyrazolo[1,5-a]pyrimidine-3-carboxamide bis(trifluoroacetate)], the 50% inhibitory concentration (IC50) was under 500 nM in test [1] (setting [4]), under 500 nM in test [2] and under 100 nM in test [3].

For the compound `CNC(=O)C1CCN(c2c(C(C)NC(=O)c3c(N)nn4cccnc34)cc(Cl)c3cn[nH]c23)C1` (single isomer, unassigned) [Example 103A, 2-Amino-N-[1-(4-chloro-7-{3-[(methylamino)carbonyl]pyrrolidin-1-yl}-2H-indazol-6-yl)ethyl]pyrazolo[1,5-a]pyrimidine-3-carboxamide trifluoroacetate], the IC50 in test [1] (setting [4]) is under 1000 nM; in test [2], under 500 nM; in test [3], under 100 nM.

As to `CNC(=O)C1CCN(c2c(C(C)NC(=O)c3c(N)nn4cccnc34)cc(Cl)c3cn[nH]c23)C1` (single isomer, unassigned) [Example 103B, 2-Amino-N-[1-(4-chloro-7-{3-[(methylamino)carbonyl]pyrrolidin-1-yl}-2H-indazol-6-yl)ethyl]pyrazolo[1,5-a]pyrimidine-3-carboxamide trifluoroacetate], the IC50 was under 500 nM in test [1] (THP-1 cells, trifluoroacetate); under 500 nM in test [2]; under 100 nM in test [3].

Take `C[C@H](NC(=O)c1c(N)nn2cccnc12)c1cc(Cl)c2cncn2c1N1CCS(=O)(=O)[C@H](C)C1` [Example 31A, 2-Amino-N-((1S)-1-(8-chloro-5-(2-methyl-1,1-dioxidothiomorpholino)imidazo[1,5-a]pyridin-6-yl)ethyl)pyrazolo[1,5-a]pyrimidine-3-carboxamide trifluoroacetate salt]: the figures for the half-inhibitory concentration (IC50) in test [1] (setting [4]), in test [2] and in test [3] were under 500 nM, under 100 nM and under 100 nM, respectively.

Regarding `CC(NC(=O)c1c(N)nn2cccnc12)c1cc(Cl)c2cncn2c1N1CCS(=O)(=O)CC1` (stereo not drawn) [Example 36, 2-Amino-N-(1-[8-chloro-5-(1,1-dioxidothiomorpholin-4-yl)imidazo[1,5-a]pyridin-6-yl]ethyl)pyrazolo[1,5-a]pyrimidine-3-carboxamide trifluoroacetate salt], the IC50 in test [1] (setting [4]) was under 500 nM; in test [2] it was under 100 nM; in test [3], under 100 nM.

Turning to `CC(NC(=O)c1c(N)nn2cccnc12)c1cc(Cl)c2cncn2c1N1CC[S+]([O-])CC1` (stereo not drawn) [Example 37, 2-Amino-N-(1-[8-chloro-5-(1-oxidothiomorpholin-4-yl)imidazo[1,5-a]pyridin-6-yl]ethyl)pyrazolo[1,5-a]pyrimidine-3-carboxamide trifluoroacetate salt], the concentration for half-maximal inhibition (IC50) in test [1] (setting [4]) is under 500 nM; in test [2], under 500 nM; in test [3] it was under 100 nM.

With `CC(NC(=O)c1c(N)nn2cccnc12)c1cc(Cl)c2cncn2c1N1CCS(=O)(=O)CC1C` (stereo not drawn) [Example 38B, 2-Amino-N-(1-[8-chloro-5-(3-methyl-1,1-dioxidothiomorpholin-4-yl)imidazo[1,5-a]pyridin-6-yl]ethyl)pyrazolo[1,5-a]pyrimidine-3-carboxamide trifluoroacetate salt], the figures for the IC50 in test [1] (setting [4]), in test [2] and in test [3] were under 500 nM, under 100 nM and under 100 nM, respectively.

As for `CC(NC(=O)c1c(N)nn2cccnc12)c1cc(Cl)c2cncn2c1N1CCS(=N)(=O)CC1` (stereo not drawn) [Example 39, 2-Amino-N-(1-[8-chloro-5-(1-imino-1-oxidothiomorpholin-4-yl)imidazo[1,5-a]pyridin-6-yl]ethyl)pyrazolo[1,5-a]pyrimidine-3-carboxamide], the half-maximal inhibitory concentration (IC50) in test [1] (setting [4]) is under 500 nM; in test [2] it was under 100 nM; in test [3] it was under 100 nM.

As for `CC(NC(=O)c1c(N)nn2cccnc12)c1cc(Cl)c2cncn2c1N1CCS(=O)(=O)C(C)(C)C1` (stereo not drawn) [Example 40, 2-Amino-N-(1-[8-chloro-5-(2,2-dimethyl-1,1-dioxidothiomorpholin-4-yl)imidazo[1,5-a]pyridin-6-yl]ethyl)pyrazolo[1,5-a]pyrimidine-3-carboxamide trifluoroacetate salt], the figures for the 50% inhibitory concentration (IC50) in test [1] (setting [4]), in test [2] and in test [3] were under 500 nM, under 100 nM and under 100 nM, respectively.

On to `CCOc1c(C(C)NC(=O)c2c(N)nn3ccc(-c4cncc(OC)c4)nc23)cc(Cl)c2cn[nH]c12` (stereo not drawn) [Example 41, 2-Amino-N-(1-(4-chloro-7-ethoxy-1H-indazol-6-yl)ethyl)-5-(5-methoxypyridin-3-yl)pyrazolo[1,5-a]pyrimidine-3-carboxamide], for which the values for the concentration for half-maximal inhibition (IC50) in test [1] (setting [4]), in test [2] and in test [3] were under 500 nM, under 100 nM and under 100 nM, respectively.

As for `CCOc1c(C(C)NC(=O)c2c(N)nn3ccc(-c4cncc(CO)c4)nc23)cc(Cl)c2cn[nH]c12` (stereo not drawn) [Example 42, 2-Amino-N-(1-(4-chloro-7-ethoxy-1H-indazol-6-yl)ethyl)-5-(5-(hydroxymethyl)pyridin-3-yl)pyrazolo[1,5-a]pyrimidine-3-carboxamide], the values for the half-inhibitory concentration (IC50) in test [1] (setting [4]), in test [2] and in test [3] were under 500 nM, under 100 nM and under 100 nM, respectively.

As to `CCOc1c(C(C)NC(=O)c2c(N)nn3ccc(-c4cncc(OC)c4)nc23)cc(Cl)c2c(Cl)n[nH]c12` (stereo not drawn) [Example 43, 2-Amino-N-(1-(3,4-dichloro-7-ethoxy-1H-indazol-6-yl)ethyl)-5-(5-methoxypyridin-3-yl)pyrazolo[1,5-a]pyrimidine-3-carboxamide trifluoroacetate salt], the figures for the IC50 in test [1] (setting [4]), in test [2] and in test [3] were under 500 nM, under 100 nM and under 100 nM, respectively.

As for `CCOc1c(C(C)NC(=O)c2c(N)nn3ccc(N4CCCCC4)nc23)cc(Cl)c2cn[nH]c12` (stereo not drawn) [Example 44, 2-Amino-N-(1-(4-chloro-7-ethoxy-1H-indazol-6-yl)ethyl)-5-(piperidin-1-yl)pyrazolo[1,5-a]pyrimidine-3-carboxamide trifluoroacetate salt], the IC50 in test [1] (setting [4]) is over 1000 nM; in test [2] it was under 2000 nM; in test [3], under 500 nM.

As for `CCOc1c(C(C)NC(=O)c2c(N)nc3ccc(Cl)nn23)cc(Cl)c2cn[nH]c12` (stereo not drawn) [Example 45, 2-Amino-6-chloro-N-(1-(4-chloro-7-ethoxy-1H-indazol-6-yl)ethyl)imidazo[1,2-b]pyridazine-3-carboxamide], the IC50 in test [1] (setting [4]) is under 500 nM; in test [2], under 100 nM; in test [3], under 100 nM.

With `CCOc1c(C(C)NC(=O)c2c(N)nc3ccc(-c4cncc(CO)c4)nn23)cc(Cl)c2cn[nH]c12` (stereo not drawn) [Example 48, 2-Amino-N-(1-(4-chloro-7-ethoxy-1H-indazol-6-yl)ethyl)-6-(5-(hydroxymethyl)pyridin-3-yl)imidazo[1,2-b]pyridazine-3-carboxamide], the IC50 was under 500 nM in test [1] (setting [4]), under 100 nM in test [2] and under 100 nM in test [3].

As for `CCOc1c(C(C)NC(=O)c2c(N)nc3ccc(-c4cncc(CO)c4)nn23)cc(Cl)c2c(Cl)n[nH]c12` (stereo not drawn) [Example 49, 2-Amino-N-(1-(3,4-dichloro-7-ethoxy-1H-indazol-6-yl)ethyl)-6-(5-(hydroxymethyl)pyridin-3-yl)imidazo[1,2-b]pyridazine-3-carboxamide], the half-maximal inhibitory concentration (IC50) in test [1] (setting [4]) was under 500 nM; in test [2], under 100 nM; in test [3], under 100 nM.

On to `CCOc1c(C(C)NC(=O)c2c(N)nn3ccc(-c4cccnc4)nc23)cc(Cl)c2cn[nH]c12` (stereo not drawn) [Example 50, 2-Amino-N-[1-(4-chloro-7-ethoxy-1H-indazol-6-yl)ethyl]-5-pyridin-3-ylpyrazolo[1,5-a]pyrimidine-3-carboxamide bis(trifluoroacetate)], for which the figures for the half-inhibitory concentration (IC50) in test [1] (setting [4]), in test [2] and in test [3] were under 500 nM, under 100 nM and under 100 nM, respectively.

In the case of `CCOc1c(C(C)NC(=O)c2c(N)nn3cccnc23)cc(Cl)c2c(Br)n[nH]c12` (stereo not drawn) [Example 52, 2-Amino-N-(1-(3-bromo-4-chloro-7-ethoxy-1H-indazol-6-yl)ethyl)pyrazolo[1,5-a]pyrimidine-3-carboxamide trifluoroacetate], the 50% inhibitory concentration (IC50) was under 500 nM in test [1] (setting [4]), under 500 nM in test [2] and under 100 nM in test [3].

By IC50 is commonly meant the concentration needed to halve the response being measured.

The values above are taken from US10065963B2 (Incyte Corporation, priority 2015, dated 2018).
